Results from US8901315B2, “Thienopyrazole derivative having PDE7 inhibitory activity” (Daiichi Sankyo Company, Limited, priority 2004, dated 2014).
Structures can show the parent of a compound that is named as a salt. Where two headings read alike, the source gives them in different places.

Key:
[1] = target: PDE 7 (phosphodiesterase VII) (Homo sapiens (Human), UniProt Q13946); assay: PDE 7 inhibiting effect (3H-cAMP hydrolysis, PDE 7 active fraction from MOLT-4 cells); type: biochemical; conditions: read-out: PDE7 IC50
PDE 7 (phosphodiesterase VII), sequence (Q13946 whole entry): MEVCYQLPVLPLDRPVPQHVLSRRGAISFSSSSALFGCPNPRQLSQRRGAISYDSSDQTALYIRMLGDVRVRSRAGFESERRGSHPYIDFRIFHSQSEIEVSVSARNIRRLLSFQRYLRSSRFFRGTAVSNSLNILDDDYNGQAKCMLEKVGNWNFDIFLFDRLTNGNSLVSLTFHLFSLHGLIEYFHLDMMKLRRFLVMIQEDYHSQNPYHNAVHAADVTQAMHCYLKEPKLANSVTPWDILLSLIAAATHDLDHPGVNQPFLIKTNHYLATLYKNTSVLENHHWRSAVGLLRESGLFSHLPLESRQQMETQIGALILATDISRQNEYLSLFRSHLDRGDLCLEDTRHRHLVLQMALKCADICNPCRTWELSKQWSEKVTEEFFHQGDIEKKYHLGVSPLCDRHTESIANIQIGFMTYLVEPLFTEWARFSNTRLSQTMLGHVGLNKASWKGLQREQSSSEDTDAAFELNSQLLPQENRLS
How it was run: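 ³H-cAMP hydrolysis by a PDE7-active fraction was followed, and the reaction was worked up with a Sephadex-QAE suspension (10 mM HEPES-Na, pH 7.0). Enzyme came from MOLT-4 cell soluble extract (pH 7.5 Tris buffer, 100,000×G supernatant), fractionated by HiTrap Q anion exchange with a 0–0.8 M NaCl gradient.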

[2] = target: PDE 4 (phosphodiesterase IV); assay: PDE 4 inhibiting effect (3H-cAMP hydrolysis, PDE 4 active fraction from Balb/c mouse liver); type: biochemical; conditions: PDE 4 fraction from Balb/c mice liver, 0.064 μM cAMP, 2 hours at 25° C.; read-out: PDE4 IC50
How it was run: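 Activity was measured as 3H-cAMP hydrolysis, with Sephadex-QAE added after the reaction. The enzyme was a PDE4-active fraction from 12-week male Balb/c mouse liver, taken from the ultracentrifuged soluble fraction by DEAE sepharose chromatography (0.05-1 M sodium acetate gradient, pH 6.5 buffer).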

[3] = PDE 7 fraction from MOLT-4 cells, 0.064 μM cAMP, 10 μM rolipram, 2 hours at 25° C.

| Structure (SMILES) | IC50 [1, 3] [nM] | IC50 [2] [nM] | IC50 [1] [nM] |
| --- | --- | --- | --- |
| Cc1nn(C2CCCCC2)c2sc(C(=O)N[C@H]3CC[C@H](N4C[C@@H](C)O[C@@H](C)C4)CC3)cc12 [Example 177, 1-Cyclohexyl-N-{trans-4-[(2R,6S)-2,6-dimethylmorpholinyl]-cyclohexyl}-3-methyl-1H-thieno[2,3-c]pyrazole-5-carboxamide] | 13 | 1600 | – |
| CNC1CCN([C@H]2CC[C@H](NC(=O)c3cc4c(C)nn(C5CCCCC5)c4s3)CC2)CC1 [Example 179, 1-Cyclohexyl-3-methyl-N-{trans-4-[4-(methylamino)-1-piperidinyl]-cyclohexyl}-1H-thieno[2,3-c]pyrazole-5-carboxamide] | 3.1 | 750 | – |
| CC(=O)N(C)C1CCN([C@H]2CC[C@H](NC(=O)c3cc4c(C)nn(C5CCCCC5)c4s3)CC2)CC1 [Example 180, N-(trans-4-{4-[Acetyl(methyl)amino]-1-piperidinyl}cyclohexyl)-1-cyclohexyl-3-methyl-1H-thieno[2,3-c]pyrazole-5-carboxamide] | 10 | 1400 | – |
| Cc1nn(C2CCCCC2)c2sc(C(=O)N[C@H]3CC[C@H](N4CCC(N(C)C)CC4)CC3)cc12 [Example 181, 1-Cyclohexyl-N-{trans-4-[4-(dimethylamino)-1-piperidinyl]-cyclohexyl}-3-methyl-1H-thieno[2,3-c]pyrazole-5-carboxamide] | 8.6 | 860 | – |
| Cc1nn(C2CCCCC2)c2sc(C(=O)N[C@H]3CC[C@H](N4CCC(N)CC4)CC3)cc12 [Example 184, N-[trans-4-(4-Amino-1-piperidinyl)cyclohexyl]-1-cyclohexyl-3-methyl-1H-thieno[2,3-c]pyrazole-5-carboxamide] | 6.8 | 1100 | – |
| Cc1nn(C2CCCCC2)c2sc(C(=O)N[C@H]3CC[C@H](N4CCNCC4)CC3)cc12 [Example 188, 1-Cyclohexyl-3-methyl-N-[trans-4-(1-piperazinyl)cyclohexyl]-1H-thieno[2,3-c]pyrazole-5-carboxamide] | 6.5 | 700 | – |
| CC(=O)N1CCN([C@H]2CC[C@H](NC(=O)c3cc4c(C)nn(C5CCCCC5)c4s3)CC2)CC1 [Example 190, N-[trans-4-(4-Acetyl-1-piperazinyl)cyclohexyl]-1-cyclohexyl-3-methyl-1H-thieno[2,3-c]pyrazole-5-carboxamide] | 3.5 | 1700 | – |
| Cc1nn(C2CCCCC2)c2sc(C(=O)Nc3ccc(N4CCCN(C)CC4)c(F)c3)cc12 [Example 191, 1-Cyclohexyl-N-[3-fluoro-4-(4-methyl-1,4-diazepam-1-yl)phenyl]-3-methyl-1H-thieno[2,3-c]pyrazole-5-carboxamide hemifumarate] | – | 980 | 8.9 |
| Cc1nn(C2CCOCC2)c2sc(C(=O)Nc3ccc(N4CCN(C)CC4)cc3)cc12 [Example 196, 3-Methyl-N-[4-(4-methyl-1-piperazinyl)phenyl]-1-tetrahydro-2H-pyran-4-yl-1H-thieno[2,3-c]pyrazole-5-carboxamide] | 90 | 7500 | – |
| Cc1nn(C2CCOCC2)c2sc(C(=O)Nc3ccc(N4CCN(C)CC4)c(F)c3)cc12 [Example 197, N-[3-Fluoro-4-(4-methyl-piperazinyl)phenyl]-3-methyl-1-tetrahydro-2H-pyran-4-yl-1H-thieno[2,3-c]pyrazole-5-carboxamide] | 79 | 4400 | – |
| Cc1nn(C2CCCCC2)c2sc(C(=O)Nc3ccc(CN4CCOCC4)cc3)cc12 [Example 199, 1-Cyclohexyl-3-methyl-N-[4-(4-morpholinylmethyl)phenyl]-1H-thieno[2,3-c]pyrazole-5-carboxamide fumarate] | 56 | 5800 | – |
| Cc1nn(C2CCCCC2)c2sc(C(=O)Nc3ccc(CCN(C)C)cc3)cc12 [Example 200, 1-Cyclohexyl-N-{4-[(dimethylamino)ethyl]phenyl}-3-methyl-1H-thieno[2,3-c]pyrazole-5-carboxamide] | 16 | 1900 | – |
| Cc1nn(C2CCCCC2)c2sc(C(=O)Nc3ccc(CCN4CCOCC4)cc3)cc12 [Example 201, 1-Cyclohexyl-3-methyl-N-{4-[2-(4-morpholinyl)ethyl]phenyl}-1H-thieno[2,3-c]pyrazole-5-carboxamide] | 18 | 2200 | – |
| Cc1nn(C2CCCCC2)c2sc(C(=O)Nc3ccc(CN4C(=O)CN(C)C4=O)cc3)cc12 [Example 202, 1-Cyclohexyl-methyl-N-{4-[(3-methyl-2,5-dioxo-1-imidazolidinyl)-methyl]phenyl}-1H-thieno[2,3-c]pyrazole-5-carboxamide] | 33 | 2400 | – |
| Cc1nn(C2CCCCC2)c2sc(C(=O)Nc3ccc(N4C(=O)CN(C)C4=O)cc3)cc12 [Example 203, 1-Cyclohexyl-3-methyl-N-[4-(3-methyl-2,5-dioxo-1-imidazolidinyl)-phenyl]-1H-thieno[2,3-c]pyrazole-5-carboxamide] | 6.1 | 1400 | – |
| Cc1nn(C2CCCCC2)c2sc(C(=O)N[C@H]3CC[C@H](C(=O)O)CC3)cc12 [Example 205, 4-{[(1-Cyclohexyl-3-methyl-1H-thieno[2,3-c]pyrazol-5-yl)carbonyl]-amino}cyclohexane carboxylic acid] | 91 | 14000 | – |
| Cc1nn(C2CCCCC2)c2sc(C(=O)N[C@H]3CC[C@H](CO)CC3)cc12 [Example 206, 1-Cyclohexyl-N-[4-(hydroxymethyl)cyclohexyl]-3-methyl-1H-thieno[2,3-c]pyrazole-5-carboxamide] | 50 | 3800 | – |
| Cc1nn(C2CCCCC2)c2sc(C(=O)N[C@H]3CC[C@H](C(=O)N(C)C)CC3)cc12 [Example 208, 1-Cyclohexyl-N-{4-[(dimethylamino)carbonyl]cyclohexyl}-3-methyl-1H-thieno[2,3-c]pyrazole-5-carboxamide] | 25 | 3800 | – |
| Cc1nn(C2CCCCC2)c2sc(C(=O)N[C@H]3CC[C@H](C#N)CC3)cc12 [Example 209, N-(4-Cyanocyclohexyl)-1-cyclohexyl-3-methyl-1H-thieno[2,3-c]-pyrazole-5-carboxamide] | 77 | 7400 | – |
| Cc1nn(C2CCCCC2)c2sc(C(=O)N[C@H]3CC[C@H](C(=O)O)C3)cc12 [Example 227, (1S,3S)-3-{[(1-Cyclohexyl-3-methyl-1H-thieno[2,3-c]pyrazol-5-yl)-carbonyl]amino}cyclopentanecarboxylic acid] | 56 | 10000 | – |
| Cc1nn(C2CCCCC2)c2sc(C(=O)NCCN3CCN(C)C(=O)C3=O)cc12 [Example 228, 1-Cyclohexyl-3-methyl-N-[2-(4-methyl-2,3-dioxo-1-piperazinyl)ethyl]-1H-thieno[2,3-c]pyrazole-5-carboxamide] | 51 | 5800 | – |
| Cc1nn(C2CCCCC2)c2sc(C(=O)N[C@H]3CC[C@H](C(=O)N(C)C)C3)cc12 [Example 230, 1-Cyclohexyl-N-{(1S,3S)-3-[(dimethylamino)carbonyl]cyclopentyl}-3-methyl-1H-thieno[2,3-c]pyrazole-5-carboxamide HCl salt] | 23 | 7000 | – |
| Cc1nn(C2CCCCC2)c2sc(C(=O)NC3CCN(C(=O)N(C)C)CC3)cc12 [Example 235, 1-Cyclohexyl-N-{1-[(dimethylamino)carbonyl]-4-piperidinyl}-3-methyl-1H-thieno[2,3-c]pyrazole-5-carboxamide] | 17 | 2800 | – |
| Cc1nn(C2CCCCC2)c2sc(C(=O)N[C@H]3CC[C@H](C(=O)N4CCOCC4)CC3)cc12 [Example 236, 1-Cyclohexyl-3-methyl-N-[4-(4-morpholinylcarbonyl)cyclohexyl]-1H-thieno[2,3-c]pyrazole-5-carboxamide] | 20 | 2700 | – |
| Cc1nn(C2CCCCC2)c2sc(C(=O)N[C@H]3CC[C@H](C(=O)N4CCC(O)CC4)CC3)cc12 [Example 239, 1-Cyclohexyl-N-{4-[(4-hydroxy-1-piperidinyl)carbonyl]cyclohexyl}-3-methyl-1H-thieno[2,3-c]pyrazole-5-carboxamide] | 15 | 2600 | – |
| Cc1nn(C2CCCCC2)c2sc(C(=O)N[C@H]3CC[C@H](CN4C(=O)CNC4=O)CC3)cc12 [Example 247, 1-Cyclohexyl-N-{4-[(2,5-dioxo-1-imidazolidinyl)methyl]cyclohexyl}-3-methyl-1H-thieno[2,3-c]pyrazole-5-carboxamide] | 6.5 | 1400 | – |
| Cc1nn(C2CCOCC2)c2sc(C(=O)Nc3ccc(C(=O)N(C)C)cc3)cc12 [Example 255, N-{4-[(Dimethylamino)carbonyl]phenyl}-3-methyl-1 tetrahydro-2H-pyran-4-yl-1H-thieno[2,3-c]pyrazole-5-carboxamide] | 89 | 12000 | – |
| Cc1nn(C2CCCCC2)c2sc(C(=O)Nc3ccc(N4CCNC4=O)nc3)cc12 [Example 256, 1-Cyclohexyl-3-methyl-N-[6-(2-oxo-1-imidazolidinyl)-3-pyridinyl]-1H-thieno[2,3-c]pyrazole-5-carboxamide] | 2 | 810 | – |
| Cc1nn(C2CCCCC2)c2sc(C(=O)N[C@H]3CC[C@H](CO)C3)cc12 [Example 257, 1-Cyclohexyl-N-[(1S,3S)-3-(hydroxymethyl)cyclopentyl]-3-methyl-1H-thieno[2,3-c]pyrazole-5-carboxamide] | 68 | 8300 | – |
